“Also recorded” adds a separate entry of the source.
Experiments:
IR condensates [1] = test: Imaging of IR puncta/condensates (immunofluorescence, IR-GFP) in HepG2 cells; assay type: cell-based, human
Procedure: For insulin sensitivity and resistance experiments in HepG2 cells, cells were washed with EMEM once and cultured in EMEM for two days. […] To wash out insulin, cells were washed in EMEM seven times, which includes three quick washes, three 5 min washes and a long 20 minute-wash in EMEM at 37° C. In order to investigate insulin response, cells were acutely treated for 5 min with insulin diluted in EMEM supplemented with 1.25% fatty acid-free BSA at 37° C. with 5% CO2 in a humidified incubator.
Metformin (SIGMA, D150959-5G) was resuspended in sterile water to a concentration of 1M and diluted to the reported concentrations in the figures in cell media. […]
HepG2 cells, human liver spheroids and human tissue liver sections were fixed in 4% PFA (VWR, BT140770-10X10) in PBS for 10 min at room temperature. Cells were washed in PBS three times for 5 min and then blocked with 4% IgG-free BSA (VWR, 102643-516) for 15-60 min at room temperature. Cells were then incubated with 1:500 primary antibody in 4% IgG-free BSA at 4° C. overnight. The next day, cells were washed three times with PBS and incubated with 1:500 secondary antibodies in 4% IgG-free BSA at room temperature for 1 hr covered in foil. Cells were washed three times with PBS for 5 min. DNA was stained using 1:5000 Hoechst in PBS for 5 min at RT. Cells were washed three times with PBS for 5 min, stored at 4° C. until imaging. For tissue sections, samples were mounted using Vectashield mounting media (Vector Laboratories, Inc, H-1000). LSM880 microscope with Airyscan detector (ZEISS) was used for image acquisition. Images were then processed using Fiji/ImageJ v2.1.0/153c.
Cells expressing endogenous IR tagged with GFP were grown on 35 mm glass bottom dishes (MatTek Corporation, P35G-1.5-20-C). Cells were imaged at 37° C. using the SM880 Microscope with Airyscan detector with 63× objective and Zen Black software (ZEISS) at the W.M. Keck Microscopy Facility, MIT. Images were then processed using Fiji/ImageJ v2.1.0/153c.
To quantify IR fluorescent signal in puncta, Fiji/ImageJ v2.1.0/153c was used. A circle or an oval was drawn around IR puncta using the oval selection tool and the average fluorescence intensity in the circle/oval (=in the puncta) was determined using the measure tool on Fiji. Background was then subtracted as previously described. To quantify IR fluorescent signal at puncta in various cellular compartments, applicant identified the location of the plasma membrane, cytoplasm, nucleus and RNA FISH spots as follows. The plasma membrane location was identified based on IR immunofluorescence signal, IR-GFP fluorescent signal or CK18 immunofluorescence signal or cell edge. The nucleus was determined by the Hoechst stain for immunofluorescence and tc-PALM experiments or by IR-GFP fluorescence when HepG2 cells expressing IR-GFP were imaged. Given the overlap between Hoechst fluorescence and GFP fluorescence, artefactual green fluorescence coming from the Hoechst confounded IR puncta identification in the nucleus. Since the differences in IR puncta intensity and concentration between cytoplasm and nucleus in HepG2 cells was clear, nuclear outline was easily drawn based on IR-GFP fluorescent signal. Cytoplasm was considered the region between the plasma membrane and the nucleus. RNA FISH spots were identified based on RNA FISH probe fluorescence. Within the FISH spot, IR intensity was measured using the measure tool.
To estimate the number of IR puncta at the plasma membrane, cytoplasm, nucleus or in entire cells, IR puncta were initially counted in a cell slice using Fiji. The number obtained from the cell slice was then multiplied based on the estimated size of the plasma membrane, cytoplasm, nucleus or entire cell, which were obtained considering the length and width of the cell under investigation and the estimated height (˜5 um). […]

IR condensates [2] = test: Immunofluorescence for IR in human liver spheroids (primary human hepatocytes); assay type: cell-based; conditions: 3 nM insulin 10 min
Procedure: For human liver spheroid experiments, primary human hepatocytes from a donor (BioIVT; lot #SMC) were used. Cells were thawed in Cryopreserved Hepatocyte Recovery Media (CHRM, ThermoFisher), spun down at 100 g for 8 min, and resuspended in seeding medium (William's E with 5.5 mM glucose, 2 mM GlutaMax, 15 mM HEPES, 5% FBS, 1% Pen/Strep, 100 nM hydrocortisone, and insulin 200 pM or 800 pM corresponding to the proper experimental group). Spheroids were formed using custom alginate microwells. In brief, 120,000 cells were seeded per well and spun at 50 g for 2 min to seed microwells, and cultured in a volume of 300 uL seeding medium. After 24 hours, cells were switched to maintenance media for the remainder of the experiment. This maintenance media was composed of William's E plus 6.25 μg/ml transferrin, 6.25 ng/ml selenium, 0.125% fatty acid-free BSA, 20 μM linoleic acid, 5.5 mM glucose, 2 mM GlutaMax, 15 mM HEPES, 0.5% Pen/Strep, and 100 nM hydrocortisone. Insulin was supplemented with concentrations adjusted to mimic healthy and disease-inducing states, either 200 pM for physiological or 800 pM for pathologic insulin levels. Media was exchanged every 48 hours throughout the experiment. […]

[3] = insulin sensitive HepG2 cells, acute 3 nM insulin
[4] = insulin resistant HepG2 cells, metformin concentration series (FIG. 5A,B)

What does the source list for “insulin: insulin (Sigma Aldrich, I9278-5ML) used for acute stimulation and chronic physiological or pathological exposure”?
incorporation of additional IR into condensates/puncta (IR condensates [1]; insulin resistant HepG2 cells, acute insulin (3 nM)): did not promote incorporation of additional IR into condensates; also recorded: did not promote incorporation of additional IR into puncta; IR signal intensity in puncta (IR condensates [1]; [3]): caused an increase; also recorded: elevated IR-GFP signal in these puncta; also recorded: promotes an increase in IR-GFP signal in IR puncta; number of IR puncta in the cytoplasm and nucleus (IR condensates [1]; [3]): caused an increase; also recorded: increased numbers of cytoplasmic and nuclear puncta; also recorded: an increase in the number of IR puncta in the nucleus and cytoplasm; IR-incorporation into condensates over a range of insulin concentrations (IR condensates [1]; insulin-sensitive cells, 0, 0.1, 1, 10, 100 nM insulin 5 min (FIGS. 17G-17H)): non-linear transition; IR signal intensity in cytoplasmic and nuclear condensates/puncta (IR condensates [2]; insulin sensitive human liver spheroids): leads to an increase in IR signal intensity in cytoplasmic and nuclear condensates; also recorded: produced an increase in IR signal intensity in cytoplasmic and nuclear puncta

With `CN(C)C(=N)N=C(N)N` [metformin, reference compound] as the compound, how does the IR condensate rescue (IR condensates [1]; insulin resistant HepG2 cells, 12.5 uM metformin) read?
The IR condensate rescue was “significant; also recorded: evident”.

And the “intensity of IR signal in condensates” value (IR condensates [1]; [4])?
The value was “dose-dependent increase”.

What about the “number of IR containing condensates” value (IR condensates [1]; [4]) of the same compound?
Its value is “dose-dependent increase”.

What about the “effect on IR condensates” value (IR condensates [1]; insulin sensitive HepG2 cells, 50 nM metformin as printed (FIG. 13A)) of the same compound?
The value was “little or no effect on IR condensates”.

And the “IR signal in puncta” value (IR condensates [1]; insulin-resistant IR-GFP HepG2 cells, 12.5 μM metformin, 3 nM insulin 5 min (FIGS. 16D-16E, 30A))?
Its value is “partially restored IR signal in these puncta”.

What about the “effect on IR puncta / IR condensates” value (IR condensates [1]; insulin-sensitive HepG2 IR-GFP cells with or without metformin (50 μM in FIG. 30B), 3 nM insulin 5 min) of the same compound?
The value was “little or no effect on IR puncta; also recorded: does not affect IR condensates in insulin sensitive cells”.

And the “IR signal in cytoplasmic and nuclear condensates/puncta” value (IR condensates [2]; insulin resistant human liver spheroids + metformin)?
The value was “partially rescued”.

TNFα was tested. Which “insulin-stimulated IR incorporation into puncta” value (IR condensates [1]; HepG2 cells, 2 days pathological TNFα or high nutrients, 3 nM insulin 5 min (FIG. 27)) did it give?
The value was “caused a decrease in insulin-stimulated IR incorporation into puncta”.

Source: patent US20250186379A1, “METHODS AND AGENTS FOR DECREASING INSULIN RESISTANCE” (Whitehead Institute for Biomedical Research, priority 2021, published 2025)
